Assay results: patent US11530226B2, “Azepane inhibitors of menin-MLL interaction” (Janssen Pharmaceutica NV, priority 2016, dated 2022)
Where two headings read alike, the source gives them in different places.

Assays:
[1] = molecular target: T1, terbium chelate-labeled menin / FITC-MBM1 peptide (Menin/MLL) (Homo sapiens, UniProt O00255, T541A); assay: Menin/MLL homogenous time-resolved fluorescence (HTRF) assay; assay type: binding; conditions: read-out: (2) Menin HTRF assay (IC50 (nM))
T1 construct: Menin (a. a. l-610-6×his tag) was labeled with terbium cryptate as follows
T1 sequence (O00255 with tags, fused parts or gaps T541A): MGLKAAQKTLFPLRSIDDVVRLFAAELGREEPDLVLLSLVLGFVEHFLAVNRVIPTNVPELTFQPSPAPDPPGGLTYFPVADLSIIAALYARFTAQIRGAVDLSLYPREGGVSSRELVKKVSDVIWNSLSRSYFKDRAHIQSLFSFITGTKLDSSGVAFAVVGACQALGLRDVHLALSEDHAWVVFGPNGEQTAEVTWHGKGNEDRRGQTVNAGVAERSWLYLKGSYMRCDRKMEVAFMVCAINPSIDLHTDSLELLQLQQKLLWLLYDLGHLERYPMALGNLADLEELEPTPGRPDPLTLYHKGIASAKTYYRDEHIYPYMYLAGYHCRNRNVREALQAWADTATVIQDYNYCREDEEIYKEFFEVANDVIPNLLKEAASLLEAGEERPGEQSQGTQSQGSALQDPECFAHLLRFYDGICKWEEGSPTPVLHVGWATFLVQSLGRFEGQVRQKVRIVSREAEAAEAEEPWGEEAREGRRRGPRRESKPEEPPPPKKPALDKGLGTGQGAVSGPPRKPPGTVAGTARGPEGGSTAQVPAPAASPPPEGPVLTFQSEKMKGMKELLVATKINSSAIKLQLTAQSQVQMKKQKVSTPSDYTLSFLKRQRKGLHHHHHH
Summary of the method: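 Terbium cryptate-labeled menin (aa 1-610, 6×His), 100 pM, preincubated 5 min with compound, then 75 nM FITC-MBM1 peptide added for 15 min at ambient temperature. Buffer: 40 mM Tris pH 7.5, 50 mM NaCl, 1 mM DTT, 0.05% Pluronic F-127, 0.5% DMSO. HTRF 520/490 ratio; 11-point threefold titration from 25 μM, IC50 from % inhibition curve.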

[2] = system: MV-4-1 1 cells (MLL-AF4); assay: Proliferation assay (spheroid-like growth, 8 d, live-cell imaging), MV-4-11; assay type: cell-based, human; conditions: MV-4-11 cells, absolute IC50 from AUC of confluence, read-out: (3) Spheroid assay MV-4-11 (IC50 (μM))
Summary of the method: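 Cells seeded in ultra-low attachment wells (1,500 MV-4-11, 300 MOLM14, 750 K562) with compound, 0.3% DMSO, grown 8 d at 37° C. Confluence imaged every four hours; AUC of confluence versus time, relative to vehicle, fitted for absolute IC50.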

Row | IC50 [1] | IC50 [2] | IC50 ([2]; Homo sapiens, MV4-11, 192 h) | SMILES
1 | 50 nM | 2.5 µM |  | CC(C)CNC1CCCN(c2ncnc3sc(CC(F)(F)F)cc23)CC1 (single isomer, unassigned) [Compound B1A, N-isobutyl-1-(6-(2,2,2-trifluoroethyl)thieno[2,3-d]pyrimidin-4-yl)azepan-4-amine]
2 | 788 nM | 8.9 µM |  | CC(C)CNC1CCCN(c2ncnc3sc(CC(F)(F)F)cc23)CC1 (single isomer, unassigned) [Compound B1B, N-isobutyl-1-(6-(2,2,2-trifluoroethyl)thieno[2,3-d]pyrimidin-4-yl)azepan-4-amine]
3 | 330 nM |  | 2.9 µM | FC(F)(F)Cc1cc2c(N3CCC[C@H](NCc4ccccc4)CC3)ncnc2s1 [Compound 4, (S)-N-benzyl-1-(6-(2,2,2-trifluoroethyl)thieno[2,3-d]pyrimidin-4-yl)azepan-4-amine]
4 | 14 nM |  | 0.44 µM | FC(F)(F)Cc1cc2c(N3CCC[C@@H](NCc4ccccc4)CC3)ncnc2s1 [Compound 3, (R)N-benzyl-1-(6-(2,2,2-trifluoroethyl)thieno[2,3-d]pyrimidin-4-yl)azepan-4-amine]
